Data from patent US9242978B2, “Phenylacetamide compound and pharmaceutical containing same” (KOWA COMPANY, LTD., priority 2012, dated 2016).
Where two headings read alike, the source gives them in different places. Each block holds one compound with its values, some of them ahead of it.

How the values were obtained:
[1] = Evaluation of organ selectivity (non-binding drug concentration in liver and pancreas after oral administration); assay type: in vivo, normal mice (C57BL/6j mice); settings: C57BL/6j, mouse, mice, 150 minutes after administration
Protocol: A test compound suspended in 10% (v/v) Gelucire 44/14 (GATTEFOSSE) was orally administered to normal mice (C57BL/6j mice, CLEA Japan, Inc.). The percentages of drugs that had not bound to proteins in the liver and the pancreas, which had been obtained by the in vitro test, were […] the total concentrations of the drugs in the liver and the pancreas obtained 150 minutes after administration of the drugs, so as to calculate the non-binding concentration of the drug in each case. The ratio of the non-binding concentration of the drug in the […] was calculated, and thus, liver selectivity was evaluated. As a comparative compound, PSN-GK1 described in non-patent document 11 (corresponding to Example 94 of patent document 2) was produced according to the method described in patent document 2, and the produced comparative compound was then evaluated in the same manner as described above (in the table, the comparative compound is indicated as PSN-GK1).

[2] = as above; assay type: in vivo, normal mice (C57BL/6j mice); settings: C57BL/6j, mouse, liver and pancreas, mice, 150 minutes after administration
[3] = biological target: T1, GST-GK derived from human liver GK (Homo sapiens, UniProt P35557); assay: In vitro GK activating action measurement test; assay type: biochemical; settings: 10 min; test compound 1 μmol/L, glucose 2.5 mmol/L, 25° C.; read-out: GK activation rate (%)
T1 construct: made in house; host or cells: Escherichia coli DH5α
T1 sequence (P35557 1-466 isoform P35557-2): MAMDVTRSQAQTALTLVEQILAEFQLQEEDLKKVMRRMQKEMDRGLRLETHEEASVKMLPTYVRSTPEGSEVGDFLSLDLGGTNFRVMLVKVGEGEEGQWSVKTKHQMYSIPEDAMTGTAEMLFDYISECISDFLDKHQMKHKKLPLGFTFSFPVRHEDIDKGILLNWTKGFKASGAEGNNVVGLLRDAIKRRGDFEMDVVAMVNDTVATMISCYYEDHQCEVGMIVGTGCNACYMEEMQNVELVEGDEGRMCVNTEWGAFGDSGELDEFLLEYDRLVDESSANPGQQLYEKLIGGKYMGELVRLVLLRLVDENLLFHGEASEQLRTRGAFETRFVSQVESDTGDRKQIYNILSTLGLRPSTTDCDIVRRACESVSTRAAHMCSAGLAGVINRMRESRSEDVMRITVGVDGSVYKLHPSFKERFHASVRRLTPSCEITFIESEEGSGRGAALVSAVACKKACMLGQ
Source text: cDNA (GenBank Accession No. NM_033507, human glucokinase, variant 2) encoding human liver-type GK polypeptide was cloned by performing a polymerase chain reaction (hereinafter referred to as “PCR”) using a human liver cDNA library (Human liver QUICK-Clone cDNA, TAKARA BIO INC.), and the thus cloned cDNA was then introduced into an expression vector (pGEX-3X, GE Healthcare Japan) for glutathione S transferase (hereinafter referred to as GST) fusion proteins. The resulting vector was introduced into Escherichia coli (Competent high DH5α, Toyobo Co., Ltd.), and the transformed Escherichia coli was then cultured at 37° C. Thereafter, Isopropyl β-D-1-thiogalactopyranoside (final concentration: 1 mmol/L, Sigma Aldrich Japan) was added to the culture, and the obtained mixture was then cultured at 30° C. for 3 hours. Thereafter, a cell mass was recovered. The recovered cell mass was subjected to freezing-and-thawing, and the resulting cell mass was then suspended in Triton-X that had been added in a final concentration of 1% to a phosphate buffer, followed by disintegration with an ultrasonic disintegrator. The homogenate was centrifuged at 33,200 rpm at 4° C. for 1 hour. Thereafter, the supernatant was recovered, and a GST-GK fusion protein was then purified using a glutathione column (GSTrap FF, GE Healthcare Japan). The obtained GST-GK fusion protein was divided into some portions each having a small volume, and the thus divided proteins were then preserved at −80° C.
A GK assay was carried out at 25° C. at a final incubation volume of 100 μL using a flat-bottom 96-well assay plate. An assay buffer comprised 25 mmol/L Hepes buffer (pH 7.1), 25 mmol/L KCl, 2.5 mmol/L or 10 mmol/L D-glucose, 5 mmol/L ATP, 1 mmol/L nicotinamide adenine dinucleotide phosphate (abbreviated as NADP), 2 mmol/L MgCl2, 1 mmol/L dithiothreitol (DTT), 2 units/mL glucose-6 phosphate dehydrogenase (G6PDH), and 1 μg/mL GST-GK derived from human liver GK. ATP, G6PDH, and NADP were purchased from Roche Diagnostics. […] The thus mixed solution was preincubated in an incubator in which the temperature was controlled at 25° C. for 15 minutes. Subsequently, the reaction was initiated by adding 10 μL of the GST-GK solution to the reaction mixture, resulting in a final concentration of 0.1 μg/mL. After initiation of the reaction, an increase in the optical concentration at 340 nm (OD340) was monitored with a microplate spectrophotometer (Varsamax, Molecular Devices Japan K. K.) every 10 seconds over an incubation period of 10 minutes. An inclination of the OD340 increase was defined as raw data. The GK activating rate was indicated as a numerical value obtained from the expression: (Inclination of OD340 increase by addition of the test compound)/(inclination of OD340 increase without addition of the test compound). The results of the GK activating rate obtained at a test compound concentration of 1 μmol/L under the condition of a glucose concentration of 2.5 mmol/L are shown in the following table 2.

[4] = liver, dose 10 mg/kg, read-out: Non-binding concentration (ng/mL) Liver
[5] = pancreas, dose 10 mg/kg, read-out: Non-binding concentration (ng/mL) Pancreas

concentration at 150 min ([1]; liver, dose 30 mg/kg, read-out: Non-binding concentration (ng/mL) Liver): 23 ng/mL | concentration at 150 min ([1]; pancreas, dose 30 mg/kg, read-out: Non-binding concentration (ng/mL) Pancreas): 0.56 ng/mL
SMILES: CNC(=O)N1CC[C@H](C[C@@H](C(=O)Nc2ncc(F)s2)c2ccc(S(=O)(=O)C3CC3)cc2)C1 [Example 2, (S)-3-((R)-2-(4-(cyclopropylsulfonyl)phenyl)-3-((5-fluorothiazol-2-yl)amino)-3-oxopropyl)-N-methylpyrrolidine-1-carboxamide]
selectivity ratio at 150 min ([2]; dose 30 mg/kg): 41

activity at 1 µM [3]: 803% | concentration at 150 min [1, 4]: 65 ng/mL | concentration at 150 min [1, 5]: 3.8 ng/mL
SMILES: CC(=O)N1CC[C@H](C[C@@H](C(=O)Nc2ncc(F)s2)c2ccc(S(=O)(=O)C3CC3)cc2)C1 [Example 3, (R)-3-((S)-1-acetylpyrrolidin-3-yl)-2-(4-(cyclopropylsulfonyl)phenyl)-N-(5-fluorothiazol-2-yl)propanamide]
selectivity ratio at 150 min ([2]; dose 10 mg/kg): 17

activity at 1 µM [3]: 422%
SMILES: CCCNC(=O)N1CC[C@H](C[C@@H](C(=O)Nc2ncc(F)s2)c2ccc(S(=O)(=O)C3CC3)cc2)C1 [Example 6, (S)-3-((R)-2-(4-(cyclopropylsulfonyl)phenyl)-3-((5-fluorothiazol-2-yl)amino)-3-oxopropyl)-N-propylpyrrolidine-1-carboxamide]

activity at 1 µM [3]: 535%
SMILES: CNC(=S)N1CC[C@H](C[C@@H](C(=O)Nc2ncc(F)s2)c2ccc(S(=O)(=O)C3CC3)cc2)C1 [Example 8, (R)-2-(4-(cyclopropylsulfonyl)phenyl)-N-(5-fluorothiazol-2-yl)-3-((S)-1-(methylcarbamothioyl)pyrrolidin-3-yl)propanamide]

activity at 1 µM [3]: 602%
SMILES: O=C(Nc1ncc(F)s1)[C@H](C[C@H]1CCN(C(=O)NO)C1)c1ccc(S(=O)(=O)C2CC2)cc1 [Example 10, (S)-3-((R)-2-(4-(cyclopropylsulfonyl)phenyl)-3-((5-fluorothiazol-2-yl)amino)-3-oxopropyl)-N-hydroxypyrrolidine-1-carboxamide]

activity at 1 µM [3]: 484%
SMILES: CNC(=O)N1CC[C@H](C[C@@H](C(=O)Nc2ncc(C)s2)c2ccc(S(=O)(=O)C3CC3)cc2)C1 [Example 16, (S)-3-((R)-2-(4-(cyclopropylsulfonyl)phenyl)-3-((5-methylthiazol-2-yl)amino)-3-oxopropyl)-N-methylpyrrolidine-1-carboxamide]

activity at 1 µM [3]: 437% | concentration at 150 min [1, 4]: 10 ng/mL | concentration at 150 min [1, 5]: 0.58 ng/mL
SMILES: CNC(=O)N1CC[C@H](C[C@@H](C(=O)Nc2ccc(C)cn2)c2ccc(S(=O)(=O)C3CC3)cc2)C1 [Example 19, (S)-3-((R)-2-(4-(cyclopropylsulfonyl)phenyl)-3-((5-methylpyridin-2-yl)amino)-3-oxopropyl)-N-methylpyrrolidine-1-carboxamide]
selectivity ratio at 150 min ([2]; dose 10 mg/kg): 17

activity at 1 µM [3]: 877%
SMILES: COc1cnc(NC(=O)[C@H](C[C@H]2CCN(C(C)=O)C2)c2ccc(S(=O)(=O)C3CC3)cc2)s1 [Example 26, (R)-3-((S)-1-acetylpyrrolidin-3-yl)-2-(4-(cyclopropylsulfonyl)phenyl)-N-(5-methoxythiazol-2-yl)propanamide]

More lines, now with the values behind:

SMILES: COC(=O)N1CC[C@H](C[C@@H](C(=O)Nc2ncc(F)s2)c2ccc(S(=O)(=O)C3CC3)cc2)C1 [Example 7, (S)-methyl 3-((R)-2-(4-(cyclopropylsulfonyl)phenyl)-3-((5-fluorothiazol-2-yl)amino)-3-oxopropyl)pyrrolidine-1-carboxylate]
activity at 1 µM [3]: 828%

SMILES: CNC(=O)C(=O)N1CC[C@H](C[C@@H](C(=O)Nc2ncc(F)s2)c2ccc(S(=O)(=O)C3CC3)cc2)C1 [Example 11]
activity at 1 µM [3]: 427%

SMILES: O=C(Nc1ncc(F)s1)[C@H](C[C@H]1CCN(C(=O)CO)C1)c1ccc(S(=O)(=O)C2CC2)cc1 [Example 13, (R)-2-(4-(cyclopropylsulfonyl)phenyl)-N-(5-fluorothiazol-2-yl)-3-((S)-1-(2-hydroxyacetyl)pyrrolidin-3-yl)propanamide]
activity at 1 µM [3]: 443%

SMILES: CNC(=O)N1CC[C@H](C[C@@H](C(=O)Nc2ncc(OC)s2)c2ccc(S(=O)(=O)C3CC3)cc2)C1 [Example 14, (S)-3-((R)-2-(4-(cyclopropylsulfonyl)phenyl)-3-((5-methoxythiazol-2-yl)amino)-3-oxopropyl)-N-methylpyrrolidine-1-carboxamide]
activity at 1 µM [3]: 809%

SMILES: CNC(=O)N1CC[C@H](C[C@@H](C(=O)Nc2ncc(Cl)s2)c2ccc(S(=O)(=O)C3CC3)cc2)C1 [Example 15, (S)-3-((R)-3-((5-chlorothiazol-2-yl)amino)-2-(4-(cyclopropylsulfonyl)phenyl)-3-oxopropyl)-N-methylpyrrolidine-1-carboxamide]
activity at 1 µM [3]: 737%

SMILES: Cc1ccc(NC(=O)[C@H](C[C@H]2CCN(C(N)=O)C2)c2ccc(S(=O)(=O)C3CC3)cc2)nc1 [Example 21, (S)-3-((R)-2-(4-(cyclopropylsulfonyl)phenyl)-3-((5-methylpyridin-2-yl)amino)-3-oxopropyl)pyrrolidine-1-carboxamide]
activity at 1 µM [3]: 727% | concentration at 150 min [1, 4]: 50 ng/mL | concentration at 150 min [1, 5]: 2 ng/mL | selectivity ratio at 150 min ([2]; dose 10 mg/kg): 25

SMILES: CC(=O)N1CC[C@H](C[C@@H](C(=O)Nc2ccc(C)cn2)c2ccc(S(=O)(=O)C3CC3)cc2)C1 [Example 23, (R)-3-((S)-1-acetylpyrrolidin-3-yl)-2-(4-(cyclopropylsulfonyl)phenyl)-N-(5-methylpyridin-2-yl)propanamide]
activity at 1 µM [3]: 491% | selectivity ratio at 150 min ([1]; liver and pancreas, dose 3 mg/kg): 9 | concentration at 150 min ([1]; liver, dose 3 mg/kg, read-out: Non-binding concentration (ng/mL) Liver): 3 ng/mL | concentration at 150 min ([1]; pancreas, dose 3 mg/kg, read-out: Non-binding concentration (ng/mL) Pancreas): 0.33 ng/mL
